Measured values taken from publication doi:10.1101/2023.12.19.572336, “Structure of an insect gustatory receptor” (bioRxiv, 2023).

Biological target: T1, Bombyx mori Gr9 (BmGr9) (Bombyx mori, UniProt B3GTD7)
T1 construct: N-terminally TwinStrep-tagged BmGr9, homotetramer; residues 232–269 and the N and C termini (15 and 5 residues) disordered
T1 sequence (B3GTD7 1-449): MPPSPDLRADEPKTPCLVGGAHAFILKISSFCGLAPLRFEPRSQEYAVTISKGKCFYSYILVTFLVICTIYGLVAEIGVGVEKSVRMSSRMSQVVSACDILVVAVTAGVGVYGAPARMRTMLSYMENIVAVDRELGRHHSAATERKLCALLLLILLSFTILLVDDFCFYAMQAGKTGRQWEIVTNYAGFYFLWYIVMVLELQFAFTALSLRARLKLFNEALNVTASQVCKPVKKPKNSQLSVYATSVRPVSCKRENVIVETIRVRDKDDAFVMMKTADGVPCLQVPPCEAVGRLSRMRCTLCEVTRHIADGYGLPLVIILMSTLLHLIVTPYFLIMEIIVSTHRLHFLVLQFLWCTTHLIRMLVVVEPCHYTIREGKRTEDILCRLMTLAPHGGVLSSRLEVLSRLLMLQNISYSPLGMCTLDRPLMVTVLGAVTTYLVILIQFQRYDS
Assay: cryo-EM of protein purified with […] D-fructose ([…] Å); EC50 by two-electrode voltage clamp in Xenopus oocytes
Assay type: cell-based

## OCC1(O)OC[C@@H](O)[C@@H](O)[C@@H]1O (stereo partly drawn) [D-fructose]
  EC50: 22 mM
